Source: US7342011B2, “Rifamycin analogs and uses thereof” (priority 2003, dated 2008)
Values after ≈ are worked out from the molar mass of the structure shown.

How the values were obtained:
Assay type in all cases: cell-based
S. pneumo. = assay: MIC assay, S. pneumo.
S. aureus = assay: MIC assay, S. aureus
E. faecalis = assay: MIC assay, E. faecalis
H. flu = assay: MIC assay, H. flu
E. coli = assay: MIC assay, E. coli

`CO[C@H]1/C=C/O[C@@]2(C)Oc3c(C)c(O)c4c(=O)c(c5oc6cc(N7CCC(NC(=O)SC)CC7)cc(O)c6nc-5c4c3C2=O)NC(=O)/C(C)=C\C=C\[C@H](C)[C@H](O)[C@@H](C)[C@@H](O)[C@@H](C)[C@H](OC(C)=O)[C@@H]1C` [Compound 45, 3′-hydroxy-5′-[4-S-methylthiocarbamyl-1-piperidinyl]benzoxazinorifamycin] was tested, and the “MIC (μg/mL) S. pneumo.” value (S. pneumo.) was 0.001 µg/mL (≈ 1.03 nM), the “MIC (μg/mL) S. aureus” value (S. aureus) was 0.015 µg/mL (≈ 15.4 nM) and the “MIC (μg/mL) E. faecalis” value (E. faecalis) was 4 µg/mL (≈ 4110 nM). The “MIC (μg/mL) H. flu” value (H. flu) was 0.5 µg/mL (≈ 514 nM) and the “MIC (μg/mL) E. coli” value (E. coli) was 8 µg/mL (≈ 8220 nM).

In the case of `CO[C@H]1/C=C/O[C@@]2(C)Oc3c(C)c(O)c4c(=O)c(c5oc6cc(N7C[C@H]8CCCN(C(C)=O)[C@H]8C7)cc(O)c6nc-5c4c3C2=O)NC(=O)/C(C)=C\C=C\[C@H](C)[C@H](O)[C@@H](C)[C@@H](O)[C@@H](C)[C@H](O)[C@@H]1C` [Compound 46, 25-O-deacetyl-3′-hydroxy-5′-[1-acetyl-(4aR,7aR)-octahydro-6H-pyrrolo[3,4-b]pyridin-6-yl]benzoxazinorifamycin], the “MIC (μg/mL) S. pneumo.” value (S. pneumo.) is reported as 0.00006 µg/mL (≈ 0.0649 nM), the “MIC (μg/mL) S. aureus” value (S. aureus) is reported as 0.004 µg/mL (≈ 4.32 nM) and the “MIC (μg/mL) E. faecalis” value (E. faecalis) is reported as 2 µg/mL (≈ 2160 nM). The “MIC (μg/mL) H. flu” value (H. flu) was 0.5 µg/mL (≈ 541 nM) and the “MIC (μg/mL) E. coli” value (E. coli) was >8 µg/mL.

For `CO[C@H]1/C=C/O[C@@]2(C)Oc3c(C)c(O)c4c(=O)c(c5oc6cc(N7C[C@H]8CCCN(C(C)=O)[C@H]8C7)cc(O)c6nc-5c4c3C2=O)NC(=O)/C(C)=C\C=C\[C@H](C)[C@H](O)[C@@H](C)[C@@H](O)[C@@H](C)[C@H](OC(C)=O)[C@@H]1C` [Compound 47, 3′-hydroxy-5′-[-acetyl-(4aR,7aR)-octahydro-6H-pyrrolo[3,4-b]pyridin-6-yl]benzoxazinorifamycin], the “MIC (μg/mL) S. pneumo.” value (S. pneumo.) was 0.002 µg/mL (≈ 2.07 nM), the “MIC (μg/mL) S. aureus” value (S. aureus) was 0.008 µg/mL (≈ 8.27 nM) and the “MIC (μg/mL) E. faecalis” value (E. faecalis) was 1 µg/mL (≈ 1030 nM). For the same molecule, the “MIC (μg/mL) H. flu” value (H. flu) was 0.25 µg/mL (≈ 259 nM) and the “MIC (μg/mL) E. coli” value (E. coli) was >8 µg/mL.

With `CO[C@H]1/C=C/O[C@@]2(C)Oc3c(C)c(O)c4c(=O)c(c5oc6cc(N7CCC(NC(=O)OC(C)(C)C)CC7)cc(O)c6nc-5c4c3C2=O)NC(=O)/C(C)=C\C=C\[C@H](C)[C@H](O)[C@@H](C)[C@@H](O)[C@@H](C)[C@H](OC(C)=O)[C@@H]1C` [Compound 48, 3′-hydroxy-5,′-[4-(2,2-dimethylethyl)carbamyl-1-piperidinyl]benzoxazinorifamycin] the “MIC (μg/mL) S. pneumo.” value (S. pneumo.) was 0.00025 µg/mL (≈ 0.25 nM), the “MIC (μg/mL) S. aureus” value (S. aureus) was 0.008 µg/mL (≈ 8.01 nM) and the “MIC (μg/mL) E. faecalis” value (E. faecalis) was 2 µg/mL (≈ 2000 nM). The “MIC (μg/mL) H. flu” value (H. flu) was 1 µg/mL (≈ 1000 nM) and the “MIC (μg/mL) E. coli” value (E. coli) was >8 µg/mL.

`CO[C@H]1/C=C/O[C@@]2(C)Oc3c(C)c(O)c4c(=O)c(c5oc6cc(N7CCC(NC(=O)N8CCC(NC(=O)SC)CC8)CC7)cc(O)c6nc-5c4c3C2=O)NC(=O)/C(C)=C\C=C\[C@H](C)[C@H](O)[C@@H](C)[C@@H](O)[C@@H](C)[C@H](OC(C)=O)[C@@H]1C` [Compound 49, 3′-hydroxy-5′-[4-(4-(S-methylthiocarbamyl)-1-piperidinylcarbonyl)amino-1-piperidinyl]benzoxazinorifamycin] was tested, and the “MIC (μg/mL) S. pneumo.” value (S. pneumo.) was 0.0005 µg/mL (≈ 0.455 nM), the “MIC (μg/mL) S. aureus” value (S. aureus) was 0.06 µg/mL (≈ 54.6 nM) and the “MIC (μg/mL) E. faecalis” value (E. faecalis) was 8 µg/mL (≈ 7280 nM). The “MIC (μg/mL) H. flu” value (H. flu) was 2 µg/mL (≈ 1820 nM) and the “MIC (μg/mL) E. coli” value (E. coli) was >8 µg/mL.

`CO[C@H]1/C=C/O[C@@]2(C)Oc3c(C)c(O)c4c(=O)c(c5oc6cc(N7CCC(NC(=O)N8CCN(C)CC8)CC7)cc(O)c6nc-5c4c3C2=O)NC(=O)/C(C)=C\C=C\[C@H](C)[C@H](O)[C@@H](C)[C@@H](O)[C@@H](C)[C@H](OC(C)=O)[C@@H]1C` [Compound 50, 3′-hydroxy-5′-[4-(4-methylpiperazinylcarbonyl)amino-1-piperidinyl]benzoxazinorifamycin] was tested, and the “MIC (μg/mL) S. pneumo.” value (S. pneumo.) was 0.00012 µg/mL (≈ 0.117 nM), the “MIC (μg/mL) S. aureus” value (S. aureus) was 0.03 µg/mL (≈ 29.3 nM) and the “MIC (μg/mL) E. faecalis” value (E. faecalis) was 4 µg/mL (≈ 3900 nM). The “MIC (μg/mL) H. flu” value (H. flu) was 0.5 µg/mL (≈ 488 nM) and the “MIC (μg/mL) E. coli” value (E. coli) was >8 µg/mL.
